Measured values as given in BigSolDB 2.1.

Cc1ccc(-c2cc(C(F)(F)F)nn2-c2ccc(S(N)(=O)=O)cc2)cc1
solubility (mole fraction)
Details	293.2 K	298.2 K	303.2 K	308.2 K	313.2 K
in NMP	0.0593	0.0672	0.0776	0.0799	0.0917
in isopropanol	0.00851	0.00902	0.0156	0.0198	0.0233
